Assay results reported in patent publication US12390455B2, “EZH1/2 dual inhibitor-containing pharmaceutical composition to be used as a combination drug” (DAIICHI SANKYO COMPANY, LIMITED, priority 2018, dated 2025).

Tests used:
Test in all cases: Cell growth inhibitory activity, Compound A alone and combined with a second medical agent (CellTiter-Glo)
MV-4-11 = assay type: cell-based, human; settings: MV-4-11, AML, MLL-AF4, FLT3-ITD; 7 days culture then 3 days in assay plate
Method: (§1) Cell strains listed in Table 1 and Table 2 were seeded in cell culture plates (for example, 6-well culture plates). DMSO solutions of Compound A diluted to different concentrations or DMSO alone were added such that the concentration of the solvent was 0.1%. The cells were cultured for 7 days. During the culturing, at intervals of about 3 days or 4 days depending on cell proliferation, subculturing was appropriately carried out. In the subculturing, DMSO solutions of Compound A diluted to different concentrations or DMSO alone were added to fresh medium at the same concentration as in initiation of the study. […]
(§2) During the culturing period, the culture conditions were 37° C. and 5% CO2. […] Thereafter, the amount of light emitted from each of the wells was measured by a plate reader (EnVision, PerkinElmer Co., Ltd.). Based on the luminescence of the sample addition group (TS) and the DMSO addition group (CS) for each treatment condition measured on the day of seeding; and the luminescence of the sample addition group (T) and the DMSO addition group (C) for each treatment condition measured on the day of evaluation, the cell growth inhibition rate was calculated in accordance with the following expression: Cell growth inhibition rate %={1−(T−TS)/(C−CS)}×100 […]

KARPAS-422 = assay type: cell-based, human; settings: KARPAS-422, DLBCL (GCB), EZH2 MT (Y641N); 7 days culture then 3 days in assay plate
Method: as §1, §2

OCI-AML2 = assay type: cell-based; settings: OCI-AML2, AML, MLL-AF6, DNMT3Amt, FLT3-ITD; 7 days culture then 3 days in assay plate
Method: (§3) Cell strains listed in Table 1 and Table 2 were seeded in cell culture plates (for example, 6-well culture plates). DMSO solutions of Compound A diluted to different concentrations or DMSO alone were added such that the concentration of the solvent was 0.1%. The cells were cultured for 7 days. During the culturing, at intervals of about 3 days or 4 days depending on cell proliferation, subculturing was appropriately carried out. In the subculturing, DMSO solutions of Compound A diluted to different concentrations or DMSO alone were added to fresh medium at the same concentration as in initiation of the study.
(§4) The cell strains cultured in the above conditions were seeded in 96-well assay plates and the cells were cultured under a combination of the following conditions: • (i) DMSO solutions of Compound A diluted to different concentrations or DMSO alone were added such that the concentration of the solvent was 0.1%, and • (ii) DMSO solutions of a second medical agent or DMSO alone (if a preparation of a second medical agent was used, the preparation of the second medical agent was diluted with saline and used, or saline alone was used) was added such that the concentration of the solvent was 0.1%.
(§5) During the culturing period, the culture conditions were 37° C. and 5% CO2. On the day when the cells were seeded in a 96-well assay plate (day of seeding) and 3 days later (day of evaluation), a reaction was carried out using CellTiter-Glo 2.0 Assay reagent (Promega KK., #G9241) in accordance with the manual attached thereto. Thereafter, the amount of light emitted from each of the wells was measured by a plate reader (EnVision, PerkinElmer Co., Ltd.). Based on the luminescence of the sample addition group (TS) and the DMSO addition group (CS) for each treatment condition measured on the day of seeding; and the luminescence of the sample addition group (T) and the DMSO addition group (C) for each treatment condition measured on the day of evaluation, the cell growth inhibition rate was calculated in accordance with the following expression: Cell growth inhibition rate %={1−(T−TS)/(C−CS)}×100
(§6) Note that, if the number of cells of a sample addition group on the day of evaluation was lower than that of the day of seeding (T<TS), the cell-killing effect was calculated in accordance with the following expression: Cell-killing rate %=(T−TS)/TS×(−100)
(§7) The cell growth inhibition rate and cell killing rate obtained by calculation were fitted to the Sigmoid Emax model to calculate 100% cell growth inhibitory concentration of each of Compound A alone, a second medical agent alone, and Compound A-second medical agent combinations at different concentrations.
(§8) Based on the 100% cell growth inhibitory concentrations (Compound A alone: D1, second medical agent alone: D2, Compound A when used in combination: d1, second medical agent when used in combination: d2) calculated, the combination index (CI) was calculated in accordance with the following expression: CI=d1/D1+d2/D2 Determination was based on the criteria: if CI<1, a synergetic effect is present; if CI=1, an additive effect is present; and if CI>1, an antagonist effect is present (refer to Adv. Enzyme Regul. 1984, p. 2227-55).

JeKo-1 = assay type: cell-based; settings: JeKo-1, MCL, EZH2 WT; 7 days culture then 3 days in assay plate
Method: as §3, §4, §5, §6, §7, §8

MOLM14 = assay type: cell-based; settings: MOLM14, AML, MLL-AF9, FLT3-ITD; 7 days culture then 3 days in assay plate
Method: as §3, §4, §5, §6, §7, §8

OCI-AML3 = assay type: cell-based; settings: OCI-AML3, AML, NPM1mt, DNMT3Amt; 7 days culture then 3 days in assay plate
Method: as §3, §4, §5, §6, §7, §8

MOLM13 = assay type: cell-based; settings: MOLM13, AML, MLL-AF9, FLT3-ITD; 7 days culture then 3 days in assay plate
Method: as §3, §4, §5, §6, §7, §8

DB = assay type: cell-based; settings: DLBCL (GCB), EZH2 MT (Y641N), 7 days culture then 3 days in assay plate
Method: as §3, §4, §5, §6, §7, §8

REC-1 = assay type: cell-based; settings: REC-1, MCL, EZH2 WT; 7 days culture then 3 days in assay plate
Method: as §3, §4, §5, §6, §7, §8

SU-DHL-2 = assay type: cell-based; settings: SU-DHL-2, DLBCL (non-GCB), EZH2 WT; 7 days culture then 3 days in assay plate
Method: as §3, §4, §5, §6, §7, §8

OCI-LY7 = assay type: cell-based; settings: OCI-LY7, DLBCL (GCB), EZH2 WT; 7 days culture then 3 days in assay plate
Method: as §3, §4, §5, §6, §7, §8

OCI-LY19 = assay type: cell-based; settings: OCI-LY19, DLBCL (GCB), EZH2 WT; 7 days culture then 3 days in assay plate
Method: as §3, §4, §5, §6, §7, §8

OCI-AML5 = assay type: cell-based; settings: OCI-AML5, AML; 7 days culture then 3 days in assay plate
Method: as §3, §4, §5, §6, §7, §8

OCI-LY3 = assay type: cell-based; settings: OCI-LY3, DLBCL (non-GCB), EZH2 WT; 7 days culture then 3 days in assay plate
Method: as §3, §4, §5, §6, §7, §8

DOHH-2 = assay type: cell-based; settings: DOHH-2, DLBCL (GCB), EZH2 WT; 7 days culture then 3 days in assay plate
Method: as §3, §4, §5, §6, §7, §8

GRANTA-519 = assay type: cell-based; settings: GRANTA-519, MCL, EZH2 WT; 7 days culture then 3 days in assay plate
Method: as §3, §4, §5, §6, §7, §8

Cc1cc(C)c(CNC(=O)c2cc(Cl)c3c(c2C)O[C@@](C)([C@H]2CC[C@H](N(C)C)CC2)O3)c(=O)[nH]1 [Compound A, (2R)-7-chloro-2-[trans-4-(dimethylamino)cyclohexyl]-N-[(4,6-dimethyl-2-oxo-1,2-dihydropyridin-3-yl)methyl]-2,4-dimethyl-1,3-benzodioxol-5-carboxamide p-toluenesulfonate]
Cpd A GI100 (100% cell growth inhibitory concentration) (MV-4-11): >100 nM | Cpd A GI100 (100% cell growth inhibitory concentration) (KARPAS-422): 5.7 nM | Cpd A GI100 (100% cell growth inhibitory concentration) (OCI-AML2): 647 nM | Cpd A GI100 (100% cell growth inhibitory concentration) (JeKo-1): 8.1 nM | Cpd A GI100 (100% cell growth inhibitory concentration) (MOLM14): >1000 nM | Cpd A GI100 (100% cell growth inhibitory concentration) (OCI-AML3): >1000 nM | Cpd A GI100 (100% cell growth inhibitory concentration) (MOLM13): 97 nM | Cpd A GI100 (100% cell growth inhibitory concentration) (DB): >100 nM | Cpd A GI100 (100% cell growth inhibitory concentration) (REC-1): 170 nM | Cpd A GI100 (100% cell growth inhibitory concentration) (SU-DHL-2): 4.9 nM | Cpd A GI100 (100% cell growth inhibitory concentration) (OCI-LY7): 90 nM | Cpd A GI100 (100% cell growth inhibitory concentration) (OCI-LY19): >1000 nM | Cpd A GI100 (100% cell growth inhibitory concentration) (OCI-AML5): >5 µM | Cpd A GI100 (100% cell growth inhibitory concentration) (OCI-LY3): >1000 nM | Cpd A GI100 (100% cell growth inhibitory concentration) (DOHH-2): 17 nM | Cpd A GI100 (100% cell growth inhibitory concentration) (GRANTA-519): 53 nM
